Source: patent US20050245399A1, “Pyrazole derivatives as herbicidal compositions containing them” (ISHIHARA SANGYO KAISHA, LTD., priority 2004, published 2005)

Legend:
Format in all cases: in vivo
[1] = tested on: velvetleaf (Abutilon theophrasti), ABUTH; assay: Test Example 2 post-emergence (foliage treatment) herbicidal activity, ABUTH; settings: 63 g a.i./ha
Excerpt: (§1) Upland field soil was put into a 1/170,000 ha pot, and seeds of various plants were sown. Then, when the plants reached predetermined leaf stages {1. barnyardgrass (Echinochloa crus-galli L.), ECHCG: 1.1-2.1 leaf stage, 2. crabgrass (Digitaria sanguinalis L.), DIGSA: 1.0-2.0 leaf stage, 3. green foxtail (Setaria viridis L.), SETVI: 1.0-2.2 leaf stage, 4. redroot pigweed (Amaranthus retroflexus L.), AMARE: 0.1-1.5 leaf stage, 5. prickly sida (Sida spinosa L.), SIDSP: 0.1-0.6 leaf stage, 6. velvetleaf (Abutilon theophrasti), ABUTH: 0.1-0.6 leaf stage, 7. common cocklebur (Xanthium strumarium L.), XANST: 0.1 leaf stage, 8. rice (Oryza sativa L.), ORYSA; 1.0-2 leaf stage, 9. wheat (Triticum aestivum L.), TRZAX: 2.3-3.5 leaf stage, 10. corn (Zea mays L.), ZEAMXN 2.1-2.6 leaf stage, 11. soybean (Glycine max Merr.), GLXMA: primary leaf stage}, a wettable powder or emulsifiable concentrate having the compound of the present invention formulated in accordance with a usual formulation method, was weighed so that the active ingredient would be a predetermined amount, and diluted with water in an amount of 500 L/ha. To the diluted solution, 0.1% (v/v) of an agricultural spreader was added. The herbicide adjusted was applied by a small size sprayer for foliage treatment. On the 20th to 23rd day after the application of the herbicide, the growth of the respective plants was visually observed, and the herbicidal effects were evaluated by growth controlling degrees (%) ranging from 0 (equivalent to the untreated control) to 100 (complete kill), whereby the results shown in Table 5, were obtained. Compound Nos. in Table 5 correspond to Compound Nos. in Table 1 and 2 given hereinbefore.

[2] = tested on: velvetleaf (Abutilon theophrasti): ABUTH; assay: Test Example 1 pre-emergence herbicidal activity, ABUTH; settings: Rate 63 g a.i./ha, visually observed 20th to 23rd day after application
Excerpt: (§2) Upland field soil was put into a 1/170,000 ha pot, and seeds of various plants {1. barnyardgrass (Echinochloa crus-galli L.): ECHCG, 2. crabgrass (Digitaria sanguinalis L.): DIGSA, 3. green foxtail (Setaria viridis L.): SETVI, 4. redroot pigweed (Amaranthus retroflexus L.): AMARE, 5. prickly sida (Sida spinosa L.): SEDSP, 6. velvetleaf (Abutilon theophrasti): ABUTH, 7. common cocklebur (Xanthium strumarium L.): XANST, 8. rice (Oryza sativa L.): ORYSA, 9. wheat (Triticum aestivum L.): TRZAX, 10. corn (Zea mays L.): ZEAMX, 11. soybean (Glycine max Merr.): GLXMA} were sown. Then, one day after the sowing, a wettable powder or emulsifiable concentrate having the compound of the present invention formulated in accordance with a usual formulation method, was weighed so that the active ingredient would be a predetermined amount and diluted with water in an amount of 500 L/ha. The herbicide adjusted was applied by a small size sprayer for preemergence treatment. On the 20th to 23rd day after the application of the herbicide, the growth of the respective plants was visually observed, and the herbicidal effects were evaluated by growth controlling degrees (%) ranging from 0 (equivalent to the untreated control) to 100 (complete kill), whereby the results shown in Table 4, were obtained. Compound Nos. in Table 4 correspond to Compound Nos. in Table 1 and 2 given hereinbefore.

[3] = tested on: crabgrass (Digitaria sanguinalis L.): DIGSA; assay: Test Example 1 pre-emergence herbicidal activity, DIGSA; settings: Rate 63 g a.i./ha, visually observed 20th to 23rd day after application
Excerpt: as §2

[4] = tested on: green foxtail (Setaria viridis L.), SETVI; assay: Test Example 2 post-emergence (foliage treatment) herbicidal activity, SETVI; settings: 63 g a.i./ha
Excerpt: as §1

[5] = tested on: rice (Oryza sativa L.), ORYSA; assay: Test Example 2 post-emergence (foliage treatment) herbicidal activity, ORYSA; settings: 63 g a.i./ha
Excerpt: as §1

[6] = tested on: redroot pigweed (Amaranthus retroflexus L.): AMARE; assay: Test Example 1 pre-emergence herbicidal activity, AMARE; settings: Rate 63 g a.i./ha, visually observed 20th to 23rd day after application
Excerpt: as §2

[7] = tested on: corn (Zea mays L.): ZEAMX; assay: Test Example 1 pre-emergence herbicidal activity, ZEAMX; settings: Rate 63 g a.i./ha, visually observed 20th to 23rd day after application
Excerpt: as §2

[8] = tested on: prickly sida (Sida spinosa L.), SIDSP; assay: Test Example 2 post-emergence (foliage treatment) herbicidal activity, SIDSP; settings: 63 g a.i./ha
Excerpt: as §1

[9] = tested on: crabgrass (Digitaria sanguinalis L.), DIGSA; assay: Test Example 2 post-emergence (foliage treatment) herbicidal activity, DIGSA; settings: 63 g a.i./ha
Excerpt: as §1

[10] = tested on: wheat (Triticum aestivum L.): TRZAX; assay: Test Example 1 pre-emergence herbicidal activity, TRZAX; settings: Rate 63 g a.i./ha, visually observed 20th to 23rd day after application
Excerpt: as §2

[11] = tested on: green foxtail (Setaria viridis L.): SETVI; assay: Test Example 1 pre-emergence herbicidal activity, SETVI; settings: Rate 63 g a.i./ha, visually observed 20th to 23rd day after application
Excerpt: as §2

[12] = tested on: rice (Oryza sativa L.): ORYSA; assay: Test Example 1 pre-emergence herbicidal activity, ORYSA; settings: Rate 63 g a.i./ha, visually observed 20th to 23rd day after application
Excerpt: as §2

[13] = tested on: corn (Zea mays L.), ZEAMX; assay: Test Example 2 post-emergence (foliage treatment) herbicidal activity, ZEAMX; settings: 63 g a.i./ha
Excerpt: as §1

[14] = tested on: soybean (Glycine max Merr.): GLXMA; assay: Test Example 1 pre-emergence herbicidal activity, GLXMA; settings: Rate 63 g a.i./ha, visually observed 20th to 23rd day after application
Excerpt: as §2

[15] = tested on: soybean (Glycine max Merr.), GLXMA; assay: Test Example 2 post-emergence (foliage treatment) herbicidal activity, GLXMA; settings: 63 g a.i./ha
Excerpt: as §1

[16] = tested on: wheat (Triticum aestivum L.), TRZAX; assay: Test Example 2 post-emergence (foliage treatment) herbicidal activity, TRZAX; settings: 63 g a.i./ha
Excerpt: as §1

[17] = tested on: prickly sida (Sida spinosa L.): SEDSP; assay: Test Example 1 pre-emergence herbicidal activity, SIDSP; settings: Rate 63 g a.i./ha, visually observed 20th to 23rd day after application
Excerpt: as §2

[18] = tested on: barnyardgrass (Echinochloa crus-galli L.), ECHCG; assay: Test Example 2 post-emergence (foliage treatment) herbicidal activity, ECHCG; settings: 63 g a.i./ha
Excerpt: as §1

[19] = tested on: barnyardgrass (Echinochloa crus-galli L.): ECHCG; assay: Test Example 1 pre-emergence herbicidal activity, ECHCG; settings: Rate 63 g a.i./ha, visually observed 20th to 23rd day after application
Excerpt: as §2

Structure (SMILES) | growth controlling degree, ABUTH [1] [%] | Pre-emergence Herbicidal Activity ABUTH (growth controlling degree) [2] [%] | Pre-emergence Herbicidal Activity DIGSP (growth controlling degree) [3] [%] | growth controlling degree, SETVI [4] [%] | growth controlling degree, ORYSA [5] [%] | Pre-emergence Herbicidal Activity AMARE (growth controlling degree) [6] [%] | Pre-emergence Herbicidal Activity ZEAMX (growth controlling degree) [7] [%] | growth controlling degree, SIDSP [8] [%] | growth controlling degree, DIGSP [9] [%] | Pre-emergence Herbicidal Activity TRZAX (growth controlling degree) [10] [%] | Pre-emergence Herbicidal Activity SETVI (growth controlling degree) [11] [%] | Pre-emergence Herbicidal Activity ORYSA (growth controlling degree) [12] [%] | growth controlling degree, ZEAMX [13] [%] | Pre-emergence Herbicidal Activity GLXMA (growth controlling degree) [14] [%] | growth controlling degree, GLXMA [15] [%] | growth controlling degree, TRZAX [16] [%] | Pre-emergence Herbicidal Activity SIDSP (growth controlling degree) [17] [%] | growth controlling degree, ECHCO [18] [%] | Pre-emergence Herbicidal Activity ECHCG (growth controlling degree) [19] [%]
COc1c(Cl)cc(F)c(-c2nn(C)c(OC(F)F)c2Cl)c1NC(=O)c1ccc(C)cc1 [Compound 1-261] | 100 | 80 | 100 | 100 | 70 | 100 | 0 | 100 | 95 | 10 | 98 | 40 | 40 | 0 | 70 | 30 | 100 | 100 | 80
COc1c(Cl)cc(F)c(-c2nn(C)c(OC(F)F)c2Cl)c1NC(=O)C=Cc1ccccc1F [Compound 1-256] | 100 | 70 | 90 | 90 | 80 | 100 | 0 | 100 | 60 | 10 | 70 | 30 | 30 | 0 | 60 | 60 | 60 | 60 | 60
COc1c(Cl)cc(F)c(-c2nn(C)c(OC(F)F)c2Cl)c1NC(=O)C=Cc1ccc(F)cc1 [Compound 1-258] | 100 | 70 | 70 | 60 | 40 | 100 | 0 | 100 | 40 | 0 | 30 | 40 | 10 | 0 | 20 | 10 | 70 | 60 | 10
COc1c(Cl)cc(F)c(-c2nn(C)c(OC(F)F)c2Cl)c1NC(=O)OCC1CCCCC1 [Compound 1-73] | 100 | 10 | 20 | 70 | 50 | 100 | 0 | 100 | 10 | 0 | 60 | 10 | 10 | 0 | 50 | 50 | 20 | 100 | 30
COc1c(Cl)cc(F)c(-c2nn(C)c(OC(F)F)c2Cl)c1NC(=O)CC(C)(C)C [Compound 1-265] | 95 | 100 | 100 | 80 | 40 | 100 | 0 | 100 | 60 | 20 | 70 | 10 | 30 | 0 | 50 | 30 | 100 | 60 | 20
